This note sets out measurements from patent US20140005163A1 (NOVARTIS AG, priority 2010, published 2014).

One may read the solubility as how much of the substance goes into solution per volume.

The nature of data set [1]: Cellular CaCo2 permeability assay from apical to basal (A-B). Format: in vitro ADME. The following applies: human, Caco-2, read-out: Pe A-B (permeability). The source says:
The permeability in 10^−6 cm/s of compounds of formula (I) have been confirmed for selected example using a cellular CaCo2 permeability assay from apical to basal (A-B): […]
(Passage across Caco-2 layers is used to estimate intestinal permeability.)

Data set [2] in a line: Solubility in the organic solvents PEG400, propyleneglycol and ethanol. Format: physicochemical. To be noted: organic solvent or mixture. The source says: Compounds of the invention display particularly high solubilities in organic solvents. The compounds of the invention are thus particularly useful for topical administration, e.g. to a mammal such as a human, e.g. to the skin of said mammal. The compounds are thus useful for formulation into compositions suitable for topical administration. Compounds displaying high solubility thus provide an advantage for topical administration over compounds having a lower solubility.
The solubility of certain compounds was determined in the organic solvents PEG400, propyleneglycol and ethanol.

Data set [3] can be described thus: In vitro skin penetration and permeation, pig skin in static Franz-type diffusion cells. Format: in vitro ADME. To be noted: 0.5% solution in propylene glycol, 48 hours exposure, mean ± SD of triplicate; for Skin concentration: after removal of stratum corneum; for Permeation rate: receiver. As for the experimental part: The skin penetration/permeation properties of two representative compounds of the present invention were tested as follows:
The compounds were applied as 0.5% solutions in propylene glycol to pig skin mounted in static Franz-type diffusion cells. At the end of a 48 hours exposure time, drug concentrations were measured in the skin (after removal of stratum corneum) and in the receiver.

The nature of data set [4]: In vivo penetration into dermis of topically treated pigs (skin PK). To be noted: pig dermis in vivo, topical 0.5% in PG/EtOH 7:3; mean ± SEM, n=8. The procedure: Small skin areas (4 cm^2) on the dorsolateral back of young domestic pigs were treated topically with 0.5% solutions at different time intervals (1-8 hrs) prior to drug level determination. Skin flaps with the treated sites in the centre were dissected and removed. The skin flaps were spread, and heated metal blocks placed on the test sites for 1 minute to induce separation of epidermis from the dermis. After removal of the loosened epidermal sheets, 1 mm thick dermal sheets were prepared from the treated, de-epidermized skin with a dermatome. From these sheets 6 mm punch samples (6 mm Ø) were collected and analysed for test compound concentration by LC/MS. The procedure described was done with careful avoidance of contamination of the dermal samples with compound attached superficially to the epidermis.
AUC means area under the curve, and is a well known term in clinical pharmacology. The AUC value describes the total uptake of the agent in a time interval.

Where [5] appears, read: absolute ethanol, excipient Ethanol abs.
The mark [6] stands for this setting: propylene glycol, excipient Propyleneglycol.

≈ marks a conversion by molar mass, not a printed value.

As for `COc1ccc(-c2ccc3ncc4c(c3c2)n(-c2cn(C)nc2C)c(=O)n4C)cc1OC` [Example 1.8, 8-(3,4-Dimethoxy-phenyl)-1-(1,3-dimethyl-1H-pyrazol-4-yl)-3-methyl-1,3-dihydro-imidazo[4,5-c]quinolin-2-one], the Papp A→B in data set [1] came to 28.6 ×10⁻⁶ cm/s.
On the same count and under the same terms, then `CCOc1ccc(-c2ccc3ncc4c(c3c2)n(-c2cn(CC)nc2C)c(=O)n4C)cn1` [Example 3.5, 8-(6-Ethoxy-pyridin-3-yl)-1-(1-ethyl-3-methyl-1H-pyrazol-4-yl)-3-methyl-1,3-dihydro-imidazo[4,5-c]quinolin-2-one], with 31.2 ×10⁻⁶ cm/s.
In the case of `Cc1nn(C(C)C)cc1-n1c(=O)n(C)c2cnc3ccc(-c4ccc(N(C)C)nc4)cc3c21` [Example 4.1, 8-(6-Dimethylamino-pyridin-3-yl)-1-(1-isopropyl-3-methyl-1H-pyrazol-4-yl)-3-methyl-1,3-dihydro-imidazo[4,5-c]quinolin-2-one], the Papp A→B in data set [1] is 35.1 ×10⁻⁶ cm/s. Also, the values for the solubility in data set [2] (setting [5]), in data set [2] (excipient PEG400) and in data set [2] (setting [6]) were 4.11 mg/mL (≈ 9.31 mM), above 20 mg/mL and above 20 mg/mL, respectively.
`CCn1cc(-n2c(=O)n(C)c3cnc4ccc(-c5cnc(N(C)C)nc5)cc4c32)c(C)n1` [Example 6.4, 8-(2-Dimethylamino-pyrimidin-5-yl)-1-(1-ethyl-3-methyl-1H-pyrazol-4-yl)-3-methyl-1,3-dihydro-imidazo[4,5-c]quinolin-2-one]: the Papp A→B in data set [1] amounted to 29.7 ×10⁻⁶ cm/s.
The same measure, in the same setting: then `Cc1nn(C)cc1-n1c(=O)n(C)c2cnc3ccc(-c4ccc(CO)nc4)cc3c21` [Example 16.2, 1-(1,3-Dimethyl-1H-pyrazol-4-yl)-8-(6-hydroxymethyl-pyridin-3-yl)-3-methyl-1,3-dihydro-imidazo[4,5-c]quinolin-2-one], with 5.6 ×10⁻⁶ cm/s.
Same read-out and setting: then `CCOc1cc(-c2ccc3ncc4c(c3c2)n(-c2cn(CC)nc2C)c(=O)n4C)ccc1OC` [Example 28.1, 8-(3-Ethoxy-4-methoxy-phenyl)-1-(1-ethyl-3-methyl-1H-pyrazol-4-yl)-3-methyl-1,3-dihydro-imidazo[4,5-c]quinolin-2-one], with 18.4 ×10⁻⁶ cm/s.
`Cc1nn(C)cc1-n1c(=O)n(C)c2cnc3ccc(-c4cncc(OC(C)C)c4)cc3c21` [Example 58.1, 1-(1,3-Dimethyl-1H-pyrazol-4-yl)-8-(5-isopropoxy-pyridin-3-yl)-3-methyl-1,3-dihydro-imidazo[4,5-c]quinolin-2-one]: in data set [1], the Papp A→B stood at 30.5 ×10⁻⁶ cm/s. Besides, in data set [3], the Skin concentration was 9.3 ± 6.2 µg/g. The compound further showed a Permeation rate in data set [3] of 0.5 ± 0.3 ng/cm^2/hr. Further, the solubility in data set [2] (setting [5]) was above 22 mg/mL; in data set [2] (excipient PEG400), above 26 mg/mL; in data set [2] (setting [6]) it was above 24 mg/mL. For the same compound, in data set [4], the “AUC (0-8 h) in dermis” value was 3.7 ± 1.3 µg·h/g.
Turning to `Cc1ncc(-c2ccc3ncc4c(c3c2)n(-c2cn(C)nc2C)c(=O)n4C)cc1OC(C)C` [Example 84.1, 1-(1,3-Dimethyl-1H-pyrazol-4-yl)-8-(5-isopropoxy-6-methyl-pyridin-3-yl)-3-methyl-1,3-dihydro-imidazo[4,5-c]quinolin-2-one], the Papp A→B in data set [1] was determined as 26.7 ×10⁻⁶ cm/s. This compound displayed a Skin concentration in data set [3] of 6.4 ± 3.5 µg/g. The Permeation rate in data set [3] is recorded as below 0.4 ng/cm^2/hr. For the same compound, the solubility is above 21 mg/mL in data set [2] (setting [5]), above 19 mg/mL in data set [2] (excipient PEG400) and above 20 mg/mL in data set [2] (setting [6]). In addition, the “AUC (0-8 h) in dermis” value in data set [4] is 2.8 ± 1.0 µg·h/g.
Consider `CCn1cc(-n2c(=O)n(C)c3cnc4ccc(-c5ccc(NC)nc5)cc4c32)c(C)n1` [Example 118.4, 1-(1-Ethyl-3-methyl-1H-pyrazol-4-yl)-3-methyl-8-(6-methylamino-pyridin-3-yl)-1,3-dihydro-imidazo[4,5-c]quinolin-2-one], for which, in data set [1], the Papp A→B amounted to 15.9 ×10⁻⁶ cm/s.
Still for that read-out and setting: to `Cc1ncc(-c2ccc3ncc4c(c3c2)n(-c2cn(C)nc2C)c(=O)n4C)cc1OC(CF)CF` [Example 189, 1-(1,3-Dimethyl-1H-pyrazol-4-yl)-8-[5-(2-fluoro-1-fluoromethyl-ethoxy)-6-methyl-pyridin-3-yl]-3-methyl-1,3-dihydro-imidazo[4,5-c]quinolin-2-one] belongs 26.1 ×10⁻⁶ cm/s.
As for `COCc1ncc(-c2ccc3ncc4c(c3c2)n(-c2cn(C)nc2C)c(=O)n4C)cc1OC(C)C` [Example 191.1, 1-(1,3-Dimethyl-1H-pyrazol-4-yl)-8-(5-isopropoxy-6-methoxymethyl-pyridin-3-yl)-3-methyl-1,3-dihydro-imidazo[4,5-c]quinolin-2-one], the solubility in data set [2] (setting [5]) is above 24 mg/mL; in data set [2] (excipient PEG400), above 23 mg/mL; in data set [2] (setting [6]), above 19 mg/mL.
For `COc1ccc(-c2ccc3ncc4[nH]c(=O)n(-c5cn(C)nc5C)c4c3n2)cc1OC` [Example 249, 8-(3,4-dimethoxy-phenyl)-1-(1,3-dimethyl-1H-pyrazol-4-yl)-1,3-dihydro-1,3,5,9-tetraaza-cyclopenta[a]naphthalen-2-one], the Papp A→B in data set [1] is 22.1 ×10⁻⁶ cm/s.
